Columns and labels:
periorbital skin = assay: Ointment applied to periorbital skin: coolness, eye irritancy, alerting (Study 3); format: in vivo, human; details: summary comparison
Description: The ointment was also applied to the periorbital skin (upper and lower eyelids and on skin adjacent to the lateral canthus) for tests of irritancy near the eyes, and the subject is asked if irritation is present or absent. The intensity of the eye sensation is not rated.
For tests of irritancy near the eyes in Study 3 and 4, the ointment was applied to the periorbital skin (upper and lower eyelids and on skin adjacent to the lateral canthus), and the subject asked if irritation is present or absent. The intensity of the eye sensation is not rated, but just noted as being present or absent
A 1% preparation of 2-isopropyl-5-methyl-cyclohexanecarbonyl D-alanine methyl ester in Aquaphor® ointment was applied bilaterally to the periorbital area of four individuals. […] This experiment was then repeated three days later in the evening with the same individuals whose occupations required daylong activities before a computer screen.

philtrum skin = assay: Cooling sensation after ointment applied to philtrum skin; format: in vivo, human
Description: A reliable place for topical application is the skin above the upper lip (above the vermilion border of the lips), on the philtrum, lateral to the philtrum until the nasolabial folds, and on the lower nostrils (subnasale). This part of the face is known to be densely innervated with cold receptors, second only to the surfaces of the eyeball and anogenitalia.
The intensity of the subjective skin sensation is rated as 0, 1, 2 or 3 with: 0 as no change; 1 as slight coolness, cold, or tingling; 2 as clear-cut signal of coolness, cold, or tingling; and 3 as robust cooling or cold. The intervals for recording sensations are 5 to 10 minutes, until two successive zeroes are obtained. The results (shown in FIG. 1) are averaged values of 4 to 6 separate trials in the same individual. The data are plotted using SigmaPlot® (Systat Software, Point Richmond Calif.) and a smoothing function with a negative exponential was used for analysis and statistical fit of the results. Confirmatory trials of cooling action of the long-acting NACE compounds were obtained in 2 to 4 individuals but not quantified for some because of the large number of chemicals that were evaluated
The onset of drug action is taken as the time to reach 2 units of coolness intensity, and offset of drug action is the time when coolness intensity drops below 2, after previously surpassing 2 units. The duration of cooling action is defined as the offset time minus the onset time. […] The quality of the sensation is noted, for example, as pure refreshing coolness, or if the sensation is accompanied by irritation (stinging or burning). The quality of the sensation is not rated for intensity.
For bioassay on the skin, approximately 30 mg was stirred and dissolved in 3 g of warm liquid Aquaphor® ointment to a yield 5 to 10 mg/ml (0.5% to 1.0 wt/vol) ointment. After cooling, 40 to 70 mg of the solid ointment was placed on the tip of a plastic stick and applied to the skin above the upper lip, on the philtrum, and lateral to the philtrum, up to the nasolabial folds, of test subjects and the onset and duration of cooling sensations noted.
The intensity of the subjective skin sensation was rated as 0, 1, 2 or 3 with: 0 as no change; 1 as slight coolness, cold, or tingling; 2 as clear signal of coolness, cold, or tingling; and 3 as robust cooling or cold. The intervals for recording sensations were 5 to 10 minutes, until two successive zeroes were obtained. The results (shown in FIG. 1) are averaged values of 4 to 6 separate trials in the same individual. The data are plotted using SigmaPlot® (Systat Software, Point Richmond, Calif., USA) and a smoothing function with a negative exponential was used for analysis and statistical fit of the results.
The onset of drug action was taken as the time to reach 2 units of coolness intensity, and offset of drug action was the time when coolness intensity drops below 2, after previously surpassing 2 units. The duration of cooling action was defined as the offset time minus the onset time. […] The quality of the sensation was also noted: such as pure refreshing coolness, or if the sensation was accompanied by irritation (stinging or burning). The quality of the sensation was not rated for intensity.
For the results in FIG. 1, the test compounds were singly applied to the skin above the upper lips at a 40 to 70 mg dose of a 1% wt/vol (10 mg/ml) ointment. Subsequently, for the results shown in Table 3, the test dose on the philtrum was reduced to a 0.5% wt/vol (5 mg/ml) ointment. The reason for choosing a lower dose was to increase the number of trials per individual and to have a reduced chance of substances accumulating in the skin.

[1] = tested on: dorsal surface of the tongue; details: threshold amount producing cooling on tongue of human volunteers; values from Watson US 04178459; cited from earlier work
eyelids/ocular surface = assay: Cooling after wiping closed eyelids with a towelette; format: in vivo, human; details: 1 mg/ml
Experimental: A second method of testing was to take a towelette saturated with a test solution of the cooling agent and to wipe the towelette over the dosed eyelids. The presence or absence of cooling (or irritanty, if applicable) sensations was then recorded at 10 minute intervals until the cessation of coolness in two successive intervals.
For testing of cooling compounds delivered to the eyelids with a towelette, the following procedures were used in the experiments of Table 3 and in Study 5 and 6. Three ml of liquid suspension or solution in distilled water was added to a 0.4 g cotton rectangle (50 mm×60 mm) (CS-being, Daisan Cotton, Japan) and individually sealed with a vaccuum apparatus (Foodsaver®, Jarden Corp.). Samples were stored in the freezer or refrigerator and thawed to room temperature before use. Wiping with the cotton pad delivers 40 to 45 μl of liquid composition to the eyelids ([…] to 22 μl per eye). So, if the concentration of the test substance was 1 mg/ml, the dose delivered to both eyes is a total of ˜40 to […], or ˜20 μg per eye. This method allows a reliable delivery of test substances because the dissolved or suspended particles in solution are evenly dispersed on the cotton pad in an excess volume of liquid. The presence or absence of cooling sensations was noted as being present or absent at 5 to 10 min intervals until no coolness was noticeable in two successive test intervals. Only the duration of cooling on the ocular surface was recorded, without an attempt to quantify the intensity of the sensation.

[2] = tested on: dorsal surface of the tongue; assay: Tongue cooling threshold, impregnated filter paper (Watson et al.); format: in vivo, human; details: summary comparison
Experimental: Watson et al. (U.S. Pat. No. 4,178,459) tested the properties of N-substituted p-menthane carboxamides. However, the branched chain alkylesters such as the isopropyl analogs described here in the Gly and D-Ala configuration of Formula 1 were never synthesized by Watson et al. Bioactivity of the Watson et at compounds were tested by putting filter paper (1×1 cm), impregnated with a known amount of compound, onto the dorsal surface of the tongue of the volunteer test subject. After 30 seconds, the subject was required to report presence or absence of a cooling effect. […] The average threshold of (−)-menthol for 6 subjects was 0.25 μg, but there was a 100-fold variation in individual sensitivity. The potencies of coolness signals detected from the dorsal surface of the tongue are not correlated to skin sensations of coolness may be confounded by gustatory, olfactory, and other variables, as well as by dilution from saliva.

Q: Which results are given for CC1CCC(C(C)C)C(O)C1 (single isomer, unassigned; (-)) [(−)-menthol, reference compound]?
A: Eye Irritancy (periorbital skin): yes; duration of cooling (FIG. 1) (philtrum skin; 40 to 70 mg of 1% wt/vol (10 mg/ml) ointment on skin above the upper lips): 0.3 h; Cooling on skin of face (philtrum skin; summary comparison): yes; “perfect” cooling experience (philtrum skin; summary comparison): no; Threshold tongue [1]: 0.25 µg; Acts for >1 hour at 1 mg/ml (eyelids/ocular surface): no; Cooling on tongue [2]: yes

Source: patent US20110082204A1, “N-alkylcarbonyl-amino acid ester and N-alkylcarbonyl-amino lactone compounds and their use” (priority 2006, published 2011)
